Literature values in patent US20150017242A1 (Lupin Limited, priority 2012, published 2015).
Like-named read-outs stand apart in the source and are kept apart here.

Columns and labels:
[1] = not given; remark: listed apart in the source

In the case of `CCCCc1oc2ccc(NS(C)(=O)=O)cc2c1C(=O)c1ccc(OCCCN(CCCC)CCCC)cc1.Cl` [Dronedarone, N-{2-butyl-3-[4-(3-dibutylaminopropoxy)benzoyl]benzofuran-5-yl}methane sulfonamide, hydrochloride], the absolute oral bioavailability (administered with a high fat meal) is given as “approx. 15%”, the absolute oral bioavailability (fasting) is given as 4% and the “behaviour at higher pH condition” value [1] is given as “precipitates out”.
